Assay results reported in the OPERA property sets (Mansouri et al. 2018).

Settings: for log10 BCF / log10 biotransformation half-life (days): fish

Row | SMILES | boiling point [°C] | melting point [°C] | also measured
1 | Fc1c(F)c(F)c(Br)c(F)c1F | 137 | -31 | log10 vapour pressure (mmHg): 0.903
2 | OCCC(F)(F)C(F)(F)C(F)(F)C(F)(F)C(F)(F)C(F)(F)C(F)(F)C(F)(F)F |  |  | ready biodegradability: not readily biodegradable
3 | CCCOc1cc(N)ccc1C(=O)OCCN(CC)CC.Cl |  | 149 | 
4 | C[Si](C)(C)O[Si](C)(C)O[Si](C)(C)O[Si](C)(C)O[Si](C)(C)O[Si](C)(C)O[Si](C)(C)O[Si](C)(C)O[Si](C)(C)O[Si](C)(C)O[Si](C)(C)C | 323 |  | 
5 | Oc1c(Cl)c(Cl)cc(Cl)c1Cl |  | 115 | log10 BCF: 2.15; log10 biotransformation half-life (days): -0.1
6 | O=P1(N(CCCl)CCCl)NCCCO1 (centres undefined) |  | 51.5 | ready biodegradability: not readily biodegradable
7 | O=[N+]([O-])c1c(O)cccc1O |  | 82 | ready biodegradability: readily biodegradable
8 | COc1cc(C)cc(C)c1 | 194 |  | 
9 | Nc1c(C(=O)O)ccc2c1C(=O)c1ccccc1C2=O |  | 296 | 
10 | CO/N=C(/C(=O)OC)c1ccccc1COc1ccccc1C |  | 99 | log10 vapour pressure (mmHg): -7.76
11 | Cc1cnc(Cl)nc1Cl | 235 | 26 | 
12 | Cc1cc(Cl)n(C)n1 | 158 |  | 
13 | O=C1OC(=O)C2C1C1(Cl)C(Cl)=C(Cl)C2(Cl)C1(Cl)Cl (centres undefined) |  | 233 | 
14 | Cc1cc(-c2cc(C)c(O)c(C)c2)cc(C)c1O |  | 222 | 
15 | C[C@H](NC(=O)c1ccccc1)C(=O)O (racemic) |  | 166 | 
16 | C/C=C(/C)CCC | 95.6 | -118 | 
17 | CCCC=CC=O |  |  | log10 Henry constant (atm·m³/mol): -4.31
18 | O=C(OC[C@H]1O[C@@H](O)[C@H](O)[C@@H](O)[C@@H]1O)c1ccccc1 |  | 121 | 
19 | O=C(O)CCCCCc1ccccc1 |  | 23 | 
20 | CC(=O)O.CC(=O)O.N=C(NCCCCCCNC(=N)NC(=N)Nc1ccc(Cl)cc1)NC(=N)Nc1ccc(Cl)cc1 |  | 154 | 
21 | CCCCOC(=O)c1ccccc1C(=O)OC1CCCCC1 |  |  | log10 vapour pressure (mmHg): -5.32

Row | SMILES | boiling point [°C] | melting point [°C] | also measured
22 | CCCCOC(=O)c1ccccc1C(=O)O |  | 73.5 | 
23 | CC=C(Br)Br | 125 |  | 
24 | CC(=O)Oc1ccc(C)cc1 | 212 |  | 
25 | CCCOC(=O)c1ccc(C(=O)OCCC)nc1 |  |  | ready biodegradability: not readily biodegradable
26 | C#Cc1ccccc1 | 143 | -44.8 | log10 vapour pressure (mmHg): 0.314
27 | CCOP(=O)(OCC)SCCSCC |  |  | log10 Koc (L/kg): 1.85
28 | NC(=O)Nc1ccc(Cl)c(Cl)c1 |  |  | log10 Koc (L/kg): 2.53
29 | NC(=O)OCCCc1ccccc1 |  | 102 | 
30 | CCCC(=O)C(=O)OCC | 182 |  | 
31 | CC(=O)C1(O)CCCCC1 | 126 |  | 
32 | CCCCCCCCOC(=O)c1ccccc1C(=O)OCCCCCCCC |  |  | log10 Koc (L/kg): 4.38; log10 vapour pressure (mmHg): -7; ready biodegradability: readily biodegradable
33 | Clc1ccc(-c2cc(Cl)c(Cl)c(Cl)c2)cc1Cl |  |  | log10 Koa: 10.3; log10 biotransformation half-life (days): 2.4
34 | CC1CCSCC1 | 159 | -28 | 
35 | CC(=O)/C(C)=N/O | 186 | 76.8 | 
36 | C=CCCCCCCCCCCCCCCCCCCCCC(=O)O |  |  | ready biodegradability: readily biodegradable
37 | COc1nccnc1NS(=O)(=O)c1ccc(N)cc1 |  | 176 | 
38 | CC(=O)N1C[C@H](O)C[C@H]1C(=O)O |  | 132 | 
39 | COC(=O)CCc1ccccc1 | 238 |  | 
40 | OCC(F)(F)C(F)(F)C(F)(F)C(F)(F)C(F)(F)C(F)(F)C(F)(F)C(F)F |  | 56 | 
41 | CSc1ccc(O)cc1C |  |  | ready biodegradability: not readily biodegradable
42 | FC(F)(F)C(F)(F)N(C(F)(F)C(F)(F)F)C(F)(F)C(F)(F)F | 70.3 | -110 | 

Row | SMILES | boiling point [°C] | melting point [°C] | also measured
43 | CC(C)(CCC(=O)O)C(=O)O |  | 84 | 
44 | Cc1ccc(N)cc1N | 292 | 99 | log10 vapour pressure (mmHg): -3.77; ready biodegradability: not readily biodegradable; log10 BCF: 1.7
45 | CC1(C)CC[C@]2(C)CC=C3[C@]4(C)CC[C@H]5C(C)(C)[C@@H](O)CC[C@]5(C)[C@H]4CC[C@@]3(C)[C@@H]2C1 |  | 284 | 
46 | C=C(Cl)Cl | 31.6 | -122 | log10 Henry constant (atm·m³/mol): -1.58; log10 Koc (L/kg): 1.81; log10 vapour pressure (mmHg): 2.78; ready biodegradability: not readily biodegradable; log10 BCF: 1.11; log10 biotransformation half-life (days): -0.72
47 | S=C=S | 46 | -112 | log10 Henry constant (atm·m³/mol): -1.84; log10 Koa: 2.28; log10 Koc (L/kg): 2.34; log10 vapour pressure (mmHg): 2.56; log10 BCF: 1.29
48 | CCC(=O)c1cc(O)ccc1O |  | 96.5 | 
49 | Oc1c(I)cc(I)c2cccnc12 |  | 210 | 
50 | Cc1cc2cccc(C)c2cc1C | 285 |  | 
51 | CCCSP(=O)(OCC)Oc1ccc(Br)cc1Cl (centres undefined) |  |  | log10 Koc (L/kg): 3.03; log10 vapour pressure (mmHg): -6.05
52 | OCC(O)c1ccccc1 (centres undefined) | 273 | 67.5 | 
53 | CCCC(=NOCC)C1=C(O)CC(CC(C)SCC)CC1=O (centres undefined) |  |  | log10 Koc (L/kg): 2; log10 vapour pressure (mmHg): -6.8
54 | CCc1c(Br)c(Br)c(Br)c(Br)c1Br |  | 138 | log10 Koc (L/kg): 4.92; ready biodegradability: not readily biodegradable; log10 BCF: 2.52; log10 biotransformation half-life (days): 0.02
55 | NC(=O)Oc1ccccc1 |  | 150 | 
56 | O=C(O)CCCCCC1NC(=O)CS1 (centres undefined) |  | 140 | 
57 | CCC(O)(CC)C(C)C | 160 |  | 
58 | FC(F)(F)C(F)(F)C(F)(F)C(F)(F)C(F)(F)C(F)(F)C(F)(F)I | 138 |  | 
59 | C=CC(O)CO (centres undefined) | 196 |  | 
60 | O=[N+]([O-])c1cccc(CO)c1 |  | 30.5 | 
61 | c1ccc(Cn2cncn2)cc1 |  | 49 | 
62 | CC1(OO)CCC2CC1C2(C)C (centres undefined) |  |  | ready biodegradability: not readily biodegradable
63 | N#Cc1ccc([N+](=O)[O-])cc1 |  | 148 | 
